Among the data in patent US12441722B2, “Therapeutic agents and methods of treatment” (University of Florida Research Foundation, Incorporated, priority 2020, dated 2025) are EC50 values, retold here.

Bounds are passed on as bounds.

One test has as its system MOLT-4. The experiment in a line: Cell viability assay (tetrazolium-based MTS) in MOLT4 cells. Conditions: Homo sapiens, MOLT-4, MOLT4 acute lymphoblastic leukemia cells, 48 h incubation. The protocol: Cancer cells from acute lymphoblastic leukemia (MOLT4) were incubated with increasing concentrations of compounds of Examples 1-9 for 48 h. Cell viability was measured by tetrazolium-based MTS assay. 5×10^4 to 1×10^5 suspension cells or 3×10^3 to 5×10^3 adherent cells were seeded and treated in 96-well plates for 48 h. The EC50 values of individual agents were calculated with GraphPad Prism.
A word on the EC50: it is the concentration that produces a half-maximal response. For `Cc1ncsc1-c1ccc([C@H](CC(=O)NCCCNC(=O)c2nc(N3CCc4cccc(C(=O)Nc5nc6ccccc6s5)c4C3)ccc2-c2cnn(CC34CC5CC(CC(C5)C3)C4)c2C)NC(=O)[C@@H]2C[C@@H](O)CN2C(=O)[C@@H](NC(=O)C2(C#N)CC2)C(C)(C)C)cc1` [degrader #21, 2-(5-(1-(adamantan-1-ylmethyl)-5-methyl-1H-pyrazol-4-yl)-6-((3-((S)-3-((2S,4R)-1-((S)-2-(1-cyanocyclopropane-1-carboxamido)-3,3-dimethylbutanoyl)-4-hydroxypyrrolidine-2-carboxamido)-3-(4-(4-methylthiazol-5-yl)phenyl)propanamido)propyl)carbamoyl)pyridin-2-yl)-N-(benzo[d]thiazol-2-yl)-1,2,3,4-tetrahydroisoquinoline-8-carboxamide], the EC50 lay within 100 to 1000 nM. In the case of `Cc1ncsc1-c1ccc([C@H](C)NC(=O)[C@@H]2C[C@@H](O)CN2C(=O)[C@@H](NC(=O)CCCCCCCS(=O)(=O)NC(=O)c2nc(N3CCc4cccc(C(=O)Nc5nc6ccccc6s5)c4C3)ccc2-c2cc(C#N)n(CC34CC5CC(CC(C5)C3)C4)c2C)C(C)(C)C)cc1` [degrader #18, 2-(5-(1-(adamantan-1-ylmethyl)-5-cyano-2-methyl-1H-pyrrol-3-yl)-6-(((8-(((S)-1-((2S,4R)-4-hydroxy-2-(((S)-1-(4-(4-methylthiazol-5-yl)phenyl)ethyl)carbamoyl)pyrrolidin-1-yl)-3,3-dimethyl-1-oxobutan-2-yl)amino)-8-oxooctyl)sulfonyl)carbamoyl)pyridin-2-yl)-N-(benzo[d]thiazol-2-yl)-1,2,3,4-tetrahydroisoquinoline-8-carboxamide], the EC50 fell in the range of 10 to 100 nM. `Cc1c(-c2ccc(N3CCc4cccc(C(=O)Nc5nc6ccccc6s5)c4C3)nc2C(=O)NS(=O)(=O)CCCn2cc(COCCOCCNc3cccc4c3C(=O)N(C3CCC(=O)NC3=O)C4=O)nn2)cc(C#N)n1CC12CC3CC(CC(C3)C1)C2` (centres unmarked) [degrader #2, 2-(5-(1-(adamantan-1-ylmethyl)-5-cyano-2-methyl-1H-pyrrol-3-yl)-6-(((3-(4-((2-(2-((2-(2,6-dioxopiperidin-3-yl)-1,3-dioxoisoindolin-4-yl)amino)ethoxy)ethoxy)methyl)-1H-1,2,3-triazol-1-yl)propyl)sulfonyl)carbamoyl)pyridin-2-yl)-N-(benzo[d]thiazol-2-yl)-1,2,3,4-tetrahydroisoquinoline-8-carboxamide] yielded an EC50 of 10 to 100 nM. In the case of `Cc1ncsc1-c1ccc([C@H](C)NC(=O)[C@@H]2C[C@@H](O)CN2C(=O)[C@@H](NC(=O)CCCCCCCCS(=O)(=O)NC(=O)c2nc(N3CCc4cccc(C(=O)Nc5nc6ccccc6s5)c4C3)ccc2-c2cnn(CC34CC5CC(CC(C5)C3)C4)c2C)C(C)(C)C)cc1` [degrader #14, 2-(5-(1-(adamantan-1-ylmethyl)-5-methyl-1H-pyrazol-4-yl)-6-(((9-(((S)-1-((2S,4R)-4-hydroxy-2-(((S)-1-(4-(4-methylthiazol-5-yl)phenyl)ethyl)carbamoyl)pyrrolidin-1-yl)-3,3-dimethyl-1-oxobutan-2-yl)amino)-9-oxononyl)sulfonyl)carbamoyl)pyridin-2-yl)-N-(benzo[d]thiazol-2-yl)-1,2,3,4-tetrahydroisoquinoline-8-carboxamide], the EC50 is less than 10 nM. The molecule `Cc1ncsc1-c1ccc([C@H](C)NC(=O)[C@@H]2C[C@@H](O)CN2C(=O)[C@@H](NC(=O)CCCCCCCS(=O)(=O)NC(=O)c2nc(N3CCc4cccc(C(=O)Nc5nc6ccccc6s5)c4C3)ccc2-c2cnn(CC34CC5CC(CC(C5)C3)C4)c2C)C(C)(C)C)cc1` [degrader #13, 2-(5-(1-(adamantan-1-ylmethyl)-5-methyl-1H-pyrazol-4-yl)-6-(((8-(((S)-1-((2S,4R)-4-hydroxy-2-(((S)-1-(4-(4-methylthiazol-5-yl)phenyl)ethyl)carbamoyl)pyrrolidin-1-yl)-3,3-dimethyl-1-oxobutan-2-yl)amino)-8-oxooctyl)sulfonyl)carbamoyl)pyridin-2-yl)-N-(benzo[d]thiazol-2-yl)-1,2,3,4-tetrahydroisoquinoline-8-carboxamide] showed an EC50 of less than 10 nM.

`Cc1ncsc1-c1ccc([C@H](C)NC(=O)[C@@H]2C[C@@H](O)CN2C(=O)[C@@H](NC(=O)CCCCCCCCCCS(=O)(=O)NC(=O)c2nc(N3CCc4cccc(C(=O)Nc5nc6ccccc6s5)c4C3)ccc2-c2cnn(CC34CC5CC(CC(C5)C3)C4)c2C)C(C)(C)C)cc1` [degrader #16, 2-(5-(1-(adamantan-1-ylmethyl)-5-methyl-1H-pyrazol-4-yl)-6-(((11-(((S)-1-((2S,4R)-4-hydroxy-2-(((S)-1-(4-(4-methylthiazol-5-yl)phenyl)ethyl)carbamoyl)pyrrolidin-1-yl)-3,3-dimethyl-1-oxobutan-2-yl)amino)-11-oxoundecyl)sulfonyl)carbamoyl)pyridin-2-yl)-N-(benzo[d]thiazol-2-yl)-1,2,3,4-tetrahydroisoquinoline-8-carboxamide] registered an EC50 of 10 to 100 nM.

The molecule `Cc1ncsc1-c1ccc([C@H](C)NC(=O)[C@@H]2C[C@@H](O)CN2C(=O)[C@@H](NC(=O)CCCCS(=O)(=O)NC(=O)c2nc(N3CCc4cccc(C(=O)Nc5nc6ccccc6s5)c4C3)ccc2-c2cnn(CC34CC5CC(CC(C5)C3)C4)c2C)C(C)(C)C)cc1` [degrader #10, 2-(5-(1-(adamantan-1-ylmethyl)-5-methyl-1H-pyrazol-4-yl)-6-(((5-(((S)-1-((2S,4R)-4-hydroxy-2-(((S)-1-(4-(4-methylthiazol-5-yl)phenyl)ethyl)carbamoyl)pyrrolidin-1-yl)-3,3-dimethyl-1-oxobutan-2-yl)amino)-5-oxopentyl)sulfonyl)carbamoyl)pyridin-2-yl)-N-(benzo[d]thiazol-2-yl)-1,2,3,4-tetrahydroisoquinoline-8-carboxamide] gave an EC50 of less than 10 nM. In the case of `Cc1c(-c2ccc(N3CCc4cccc(C(=O)Nc5nc6ccccc6s5)c4C3)nc2C(=O)O)cnn1CC12CC3CC(CC(C3)C1)C2` [A1331852, reference compound], the EC50 was less than 10 nM. On to `Cc1c(-c2ccc(N3CCc4cccc(C(=O)Nc5nc6ccccc6s5)c4C3)nc2C(=O)NCCCCCCNc2cccc3c2C(=O)N(C2CCC(=O)NC2=O)C3=O)cnn1CC12CC3CC(CC(C3)C1)C2` (centres unmarked) [degrader #4, 2-(5-(1-(adamantan-1-ylmethyl)-5-methyl-1H-pyrazol-4-yl)-6-((6-((2-(2,6-dioxopiperidin-3-yl)-1,3-dioxoisoindolin-4-yl)amino)hexyl)carbamoyl)pyridin-2-yl)-N-(benzo[d]thiazol-2-yl)-1,2,3,4-tetrahydroisoquinoline-8-carboxamide], for which the EC50 was in the range of 100 to 1000 nM.

The same test, now with this note: MOLT4 acute lymphoblastic leukemia cells, 48 h incubation.
Turning to `Cc1ncsc1-c1ccc([C@H](CC(=O)NCCCCCCCCNC(=O)c2nc(N3CCc4cccc(C(=O)Nc5nc6ccccc6s5)c4C3)ccc2-c2cnn(CC34CC5CC(CC(C5)C3)C4)c2C)NC(=O)[C@@H]2C[C@@H](O)CN2C(=O)[C@@H](NC(=O)C2(C#N)CC2)C(C)(C)C)cc1` [degrader #25, 2-(5-(1-(adamantan-1-ylmethyl)-5-methyl-1H-pyrazol-4-yl)-6-((8-((S)-3-((2S,4R)-1-((S)-2-(1-cyanocyclopropane-1-carboxamido)-3,3-dimethylbutanoyl)-4-hydroxypyrrolidine-2-carboxamido)-3-(4-(4-methylthiazol-5-yl)phenyl)propanamido)octyl)carbamoyl)pyridin-2-yl)-N-(benzo[d]thiazol-2-yl)-1,2,3,4-tetrahydroisoquninoline-8-carboxamide], the EC50 is 100 to 1000 nM. Take `Cc1ncsc1-c1ccc([C@H](C)NC(=O)[C@@H]2C[C@@H](O)CN2C(=O)[C@@H](NC(=O)CCCCNC(=O)C23CC4CC(CC(Cn5ncc(-c6ccc(N7CCc8cccc(C(=O)Nc9nc%10ccccc%10s9)c8C7)nc6C(=O)O)c5C)(C4)C2)C3)C(C)(C)C)cc1` [degrader #42, 6-(8-(benzo[d]thiazol-2-ylcarbamoyl)-3,4-dihydroisoquinolin-2(1H)-yl)-3-(1-(((1S,3r)-3-((5-(((S)-1-((2S,4R)-4-hydroxy-2-(((S)-1-(4-(4-methylthiazol-5-yl)phenyl)ethyl)carbamoyl)pyrrolidin-1-yl)-3,3-dimethyl-1-oxobutan-2-yl)amino)-5-oxopentyl)carbamoyl)adamantan-1-yl)methyl)-5-methyl-1H-pyrazol-4-yl)picolinic acid]: the EC50 was more than 1000 nM. On the same count and under the same terms, the result for `Cc1c(-c2ccc(N3CCc4cccc(C(=O)Nc5nc6ccccc6s5)c4C3)nc2C(=O)NCCOCCOCCOCC#Cc2ccc3c(c2)C(=O)N(C2CCC(=O)NC2=O)C3=O)cnn1CC12CC3CC(CC(C3)C1)C2` (centres unmarked) [degrader #27, 2-(5-(1-(adamantan-1-ylmethyl)-5-methyl-1H-pyrazol-4-yl)-6-((2-(2-(2-((3-(2-(2,6-dioxopiperidin-3-yl)-1,3-dioxoisoindolin-5-yl)prop-2-yn-1-yl)oxy)ethoxy)ethoxy)ethyl)carbamoyl)pyridin-2-yl)-N-(benzo[d]thiazol-2-yl)-1,2,3,4-tetrahydroisocuinoline-8-carboxamnide] reads 10 to 100 nM. Same read-out and setting: to `Cc1c(-c2ccc(N3CCc4cccc(C(=O)Nc5nc6ccccc6s5)c4C3)nc2C(=O)O)cnn1CC12CC3CC(C1)CC(C(=O)NCCCCNc1cccc4c1C(=O)N(C1CCC(=O)NC1=O)C4=O)(C3)C2` (centres unmarked) [degrader #34, 6-(8-(benzo[d]thiazol-2-ylcarbamoyl)-3,4-dihydroisoquinolin-2(1H)-yl)-3-(1-(((1r,3r)-3-((4-((2-(2,6-dioxopiperidin-3-yl)-1,3-dioxoisoindolin-4-yl)amino)butyl)carbamoyl)adamantan-1-yl)methyl)-5-methyl-1H-pyrazol-4-yl)picolinic acid] belongs 10 to 100 nM; to `Cc1c(-c2ccc(N3CCc4cccc(C(=O)Nc5nc6ccccc6s5)c4C3)nc2C(=O)NCCOCCOCCOCCCc2ccc3c(c2)C(=O)N(C2CCC(=O)NC2=O)C3=O)cnn1CC12CC3CC(CC(C3)C1)C2` (centres unmarked) [degrader #31, 2-(5-(1-(adamantan-1-ylmethyl)-5-methyl-1H-pyrazol-4-yl)-6-((2-(2-(2-(3-(2-(2,6-dioxopiperidin-3-yl)-1,3-dioxoisoindolin-5-yl)propoxy)ethoxy)ethoxy)ethyl)carbamoyl)pyridin-2-yl)-N-(benzo[d]thiazol-2-yl)-1,2,3,4-tetrahydroisociuinoline-8-carboxamide], less than 10 nM.
